Assay results as given in the NIST ThermoML archive (doi:10.1021/je9000608).
Numbers after ± are expanded uncertainties. Values belong to the compound of their own block, whether it stands above or below them.

Tests used:
[1] = Liquid; for mass density: 101.33 kPa, Pycnometric method; for vapor or sublimation pressure: Ebulliometric method (Recirculating still)
[2] = refractive index (Na D-line) (dimensionless); settings: 101.33 kPa, Liquid, Standard Abbe refractometry

- mass density ([1]; 293.15 K): 1252.9 ± 1.3 kg/m3
- vapor or sublimation pressure ([1]; 355.15 K): 95.6 ± 1 kPa
- refractive index ([2]; 293.15 K): 1.4196 ± 0.0008
Structure (SMILES): ClCCCl [1,2-dichloroethane]

Structure (SMILES): ClC(Cl)=C(Cl)Cl [tetrachloroethene]
- mass density ([1]; 293.15 K): 1623 ± 1.8 kg/m3
- vapor or sublimation pressure ([1]; 392.15 K): 95.6 ± 1 kPa
- refractive index ([2]; 293.15 K): 1.5058 ± 0.0008

- mass density ([1]; 298.15 K): 815.3 ± 0.8 kg/m3
- vapor or sublimation pressure ([1]; 428.45 K): 95.6 ± 1 kPa
- refractive index ([2]; 298.15 K): 1.4157 ± 0.0008
Structure (SMILES): CCCCCCO [hexan-1-ol]

Structure (SMILES): ClC(Cl)C(Cl)Cl [1,1,2,2-tetrachloroethane]
- mass density ([1]; 293.15 K): 1593 ± 1.8 kg/m3
- vapor or sublimation pressure ([1]; 417.25 K): 95.6 ± 1 kPa
- refractive index ([2]; 293.15 K): 1.494 ± 0.0008

Structure (SMILES): ClC=C(Cl)Cl [trichloroethene]
- mass density ([1]; 303.15 K): 1451.3 ± 1.6 kg/m3
- vapor or sublimation pressure ([1]; 358.45 K): 95.6 ± 1 kPa
- refractive index ([2]; 303.15 K): 1.475 ± 0.0008
